Drawing on patent US9546150B2, “Substituted quinazolin-4-ones for inhibiting ubiquitin specific protease 7” (HYBRIGENICS SA, priority 2011, dated 2017), this text covers IC50 for 13 compounds.

In one test the target is USP7 (Homo sapiens, UniProt Q93009). Description: USP7 activity assay, Ub-AMC substrate. It counts as biochemical. Further details: Full-length wild-type human USP7 and its catalytic mutant; His tag (pFastBac-HT vector) (N); made in house; host or cells: Spodoptera frugiperda Sf9 (or High Five) insect cells, baculovirus. To be noted: UbAMC substrate 300 nM, USP7 100 pM. Here is the method:
Bacmid DNA was prepared by an alkaline lysis procedure. The integrity of the bacmid minipreps and their orientation were checked by PCR, using generic and specific primers. Sf9 insect cells were cultured in InsectXpress medium (Cambrex) at 27° C. and transfected with the corresponding bacmid, using GeneShuttle 40 (Q-BIOgen). Viruses were recovered in the supernatant 72 h after transfection. Viruses were amplified by infecting insect cells (Sf9 or High Five cells; invitrogen) in 50 ml InsectXpress medium in a 150 cm^2 cell culture flask with 500 μl of the supernatant from transfected Sf9 cells. Following the second round of amplification, infected cells were recovered by rapid SDS lysis, boiled for 5 min at 100° C., sonicated briefly and centrifuged for 20 min at 14,000 g.
USP7 was diluted in USP buffer (50 mM Tris HCl; 0.5 mM EDTA (Ethylenediaminetetraacetic acid); 5 mM DTT; 0.01% Triton X-100; Bovine Serum Albumin 0.05 mg·ml^−1 pH7.6). Compounds stocks (10 mM) were stored at −20° C. in DMSO.
Reactions were performed as duplicates in Black 384 well plates (small volumes microplates; Greiner; 10 μl final reaction volume). […] The concentrations of the enzyme (USP7) in specificity assays was 100 pM. The concentrations were determined in order to perform specificity assays under initial velocities at fixed substrate concentration. Compounds were pre-incubated with enzymes for 30 minutes at 25° C. Reactions were initiated by addition of substrate to the plates containing the enzymes (+/− compounds) diluted in assay buffer. Reactions were incubated for 60 minutes at 37° C. Reactions were stopped by adding acetic acid (100 mM final). Readings were performed on a Pherastar Fluorescent Reader (BMG). λ Emission […].

In another test the target is T1, UCH-L3 (Homo sapiens, UniProt P15374).
T1 sequence (P15374 1-230): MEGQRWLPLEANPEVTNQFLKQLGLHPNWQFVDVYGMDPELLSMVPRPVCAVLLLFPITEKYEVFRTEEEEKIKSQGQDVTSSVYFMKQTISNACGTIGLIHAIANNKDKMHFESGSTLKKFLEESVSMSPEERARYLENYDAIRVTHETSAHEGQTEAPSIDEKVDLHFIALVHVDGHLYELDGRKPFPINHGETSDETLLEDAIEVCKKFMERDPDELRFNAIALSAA
Description: UCH-L3 activity assay, Ub-AMC substrate. It counts as biochemical. To be noted: UbAMC substrate 300 nM, UCH-L3 13 pM. Here is the method: UCH-L3 was diluted in USP buffer (50 mM Tris HCl; 0.5 mM EDTA; 5 mM DTT; 0.01% Triton X-100; Bovine Serum Albumin 0.05 mg·ml^−1 pH7.6). Compounds stocks (100 mM) were stored at −20° C. in DMSO. Compounds were tested at different concentrations: from 200 μM to 91 nM.
Reactions were performed as duplicates in Black 384 well plates (small volume microplates; Greiner; 10 μl final reaction volume). The substrate concentration for UCH-L3 was 300 nM Ub-AMC (Boston Biochem). The concentration of the enzyme (UCH-L3) in specificity assays was 13 pM. The concentrations were determined in order to perform specificity assays under initial velocities at fixed substrate concentration. Compounds were pre-incubated with enzymes for 30 minutes at 25° C. Reactions were initiated by addition of substrate to the plates containing the enzymes (+/− compounds) diluted in assay buffer. Reactions were incubated for 60 minutes at 37° C. Reactions were stopped by adding acetic acid (100 mM final). Readings were performed on a Pherastar Fluorescent Reader (BMG). λ Emission 380 nm; λ Excitation=460 nm.

Chain of USP7 (Q93009 whole entry): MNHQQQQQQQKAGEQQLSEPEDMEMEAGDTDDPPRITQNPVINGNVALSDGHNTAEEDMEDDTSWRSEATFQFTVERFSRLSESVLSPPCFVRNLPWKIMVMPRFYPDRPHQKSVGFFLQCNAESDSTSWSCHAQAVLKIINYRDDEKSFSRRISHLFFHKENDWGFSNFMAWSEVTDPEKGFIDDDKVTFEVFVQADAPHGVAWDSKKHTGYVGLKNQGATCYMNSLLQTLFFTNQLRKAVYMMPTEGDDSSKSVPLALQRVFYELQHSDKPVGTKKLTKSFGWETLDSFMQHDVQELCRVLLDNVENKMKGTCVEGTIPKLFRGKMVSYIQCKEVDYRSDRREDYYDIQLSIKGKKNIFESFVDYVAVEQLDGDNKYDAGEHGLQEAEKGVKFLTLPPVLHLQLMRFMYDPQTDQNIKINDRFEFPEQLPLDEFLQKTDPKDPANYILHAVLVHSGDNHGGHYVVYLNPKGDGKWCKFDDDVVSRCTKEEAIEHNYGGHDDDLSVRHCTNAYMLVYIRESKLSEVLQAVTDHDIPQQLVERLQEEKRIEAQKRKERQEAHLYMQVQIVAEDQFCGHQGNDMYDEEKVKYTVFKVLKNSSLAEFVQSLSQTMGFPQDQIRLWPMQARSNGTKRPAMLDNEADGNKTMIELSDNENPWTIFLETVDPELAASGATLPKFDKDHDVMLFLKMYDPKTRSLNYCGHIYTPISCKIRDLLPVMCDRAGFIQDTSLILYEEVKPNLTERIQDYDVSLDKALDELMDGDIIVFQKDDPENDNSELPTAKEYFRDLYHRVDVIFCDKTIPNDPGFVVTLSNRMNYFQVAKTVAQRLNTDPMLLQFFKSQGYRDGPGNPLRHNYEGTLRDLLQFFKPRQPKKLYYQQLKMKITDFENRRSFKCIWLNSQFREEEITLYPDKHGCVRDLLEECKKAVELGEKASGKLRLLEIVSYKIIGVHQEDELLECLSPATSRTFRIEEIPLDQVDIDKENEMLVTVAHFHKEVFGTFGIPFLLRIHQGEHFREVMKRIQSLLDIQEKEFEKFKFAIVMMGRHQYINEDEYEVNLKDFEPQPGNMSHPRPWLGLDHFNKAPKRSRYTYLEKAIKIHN

A word on the IC50: it is the concentration that inhibits the measured activity by half. High values mean weaker potency in that assay, low ones greater potency in that assay. Consider `COc1ccccc1CCC(=O)N1CCC(O)(Cn2cnc3ccccc3c2=O)CC1` [Example 10, 3-({4-hydroxy-1-[3-(2-methoxyphenyl)propanoyl]piperidin-4-yl}methyl)-3,4-dihydroquinazolin-4-one], for which the results for the IC50 against USP7 and against UCH-L3 were 261 µM and more than 200 µM, respectively.
The corresponding values for `O=C(CCc1ccccc1)N1CCC(O)(Cn2cnc3ccccc3c2=O)CC1` [Example 1, 3-{[4-hydroxy-1-(3-phenylpropanoyl)piperidin-4-yl]methyl}-3,4-dihydroquinazolin-4-one] are 69 µM and more than 200 µM.
The corresponding values for `CC(Cc1ccccc1)C(=O)N1CCC(O)(Cn2cnc3cc(Cl)ccc3c2=O)CC1` (stereo not shown) [Example 14, 3-{[1-(2-benzylpropanoyl)-4-hydroxypiperidin-4-yl]methyl}-7-chloro-3,4-dihydroquinazolin-4-one] are 24 µM and more than 200 µM.
For the compound `CCC(CC)C(=O)N1CCC(O)(Cn2cnc3cc(Cl)ccc3c2=O)CC1` [Example 9, 7-chloro-3-{[1-(2-ethylbutanoyl)-4-hydroxypiperidin-4-yl]methyl}-3,4-dihydroquinazolin-4-one], the 50% inhibitory concentration (IC50) against USP7 was 155 µM; against UCH-L3, more than 200 µM.
Regarding `O=C(CCc1cccs1)N1CCC(O)(Cn2cnc3ccccc3c2=O)CC1` [Example 12, 3-({4-hydroxy-1-[3-(thiophen-2-yl)propanoyl]piperidin-4-yl}methyl)-3,4-dihydroquinazolin-4-one], the IC50 at USP7 was 70 µM; against UCH-L3, more than 200 µM.
In turn, `CC(Cc1ccccc1)C(=O)N1CCC(O)(Cn2cnc3ccccc3c2=O)CC1` (stereo not shown) [Example 13, 3-{[1-(2-benzylpropanoyl)-4-hydroxypiperidin-4-yl]methyl}-3,4-dihydroquinazolin-4-one] showed a half-inhibitory concentration (IC50) against UCH-L3 of more than 200 µM.
For the compound `CC(Cc1cccs1)C(=O)N1CCC(O)(Cn2cnc3ccccc3c2=O)CC1` (stereo not shown) [Example 5, 3-({4-hydroxy-1-[2-methyl-3-(thiophen-2-yl)propanoyl]piperidin-4-yl}methyl)-3,4-dihydroquinazolin-4-one], the results for the IC50 on USP7 and against UCH-L3 were 37 µM and more than 200 µM, respectively.
The corresponding values for `COc1cc2ncn(CC3(O)CCN(C(=O)C(C)C)CC3)c(=O)c2cc1OC` [Example 7, 3-{[4-hydroxy-1-(2-methylpropanoyl)piperidin-4-yl]methyl}-6,7-dimethoxy-3,4-dihydroquinazolin-4-one] are 90 µM and more than 200 µM.
Take `O=C(CCc1ccccc1)N1CCC(O)(Cn2cnc3cc(Cl)ccc3c2=O)CC1` [Example 2, 7-chloro-3-{[4-hydroxy-1-(3-phenylpropanoyl)piperidin-4-yl]methyl}-3,4-dihydroquinazolin-4-one]: the IC50 against USP7 was 33 µM; on UCH-L3 it was more than 200 µM.
The like results for `O=C(CCC1CCCC1)N1CCC(O)(Cn2cnc3cc(Cl)ccc3c2=O)CC1` [Example 4, 7-chloro-3-{[1-(3-cyclopentylpropanoyl)-4-hydroxypiperidin-4-yl]methyl}-3,4-dihydroquinazolin-4-one] were, in that order, 54 µM and more than 200 µM.
The like results for `CC(C)C(=O)N1CCC(O)(Cn2cnc3ccccc3c2=O)CC1` [Example 6, 3-{[4-hydroxy-1-(2-methylpropanoyl)piperidin-4-yl]methyl}-3,4-dihydroquinazolin-4-one] were, in that order, 156 µM and more than 200 µM.
The corresponding values for `O=C(CCC1CCCC1)N1CCC(O)(Cn2cnc3ccccc3c2=O)CC1` [Example 3, 3-{[1-(3-cyclopentylpropanoyl)-4-hydroxypiperidin-4-yl]methyl}-3,4-dihydroquinazolin-4-one] are 100 µM and more than 200 µM.
`CC(Cc1cccs1)C(=O)N1CCC(O)(Cn2cnc3cc(Cl)ccc3c2=O)CC1` (stereo not shown) [Example 11, 7-chloro-3-({4-hydroxy-1-[2-methyl-3-(thiophen-2-yl)propanoyl]piperidin-4-yl}methyl)-3,4-dihydroquinazolin-4-one]: the half-inhibitory concentration (IC50) is 40 µM on USP7 and more than 200 µM at UCH-L3.
